# Reference: patent publication US12685312B2, “Sulfonamide apyrase inhibitors” (Texas Crop Science, Inc., priority 2022, dated 2026)
# System: apyrase
# Assay: Screen for apyrase inhibitors (Method 1, in vitro phosphate-release absorbance assay)
# Format: biochemical
# Conditions: inhibitor conc at 1 mM stock, 1 hr room temperature, absorbance 630 nm; rounded average of two assay results
# Outline: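 Phosphate-release colorimetric assay (Windsor method) in 60 mM Hepes, 3 mM MgCl2, 3 mM CaCl2, 3 mM ATP, pH 6.5, with compound or DMSO control added. Released phosphate developed with ammonium molybdate and ascorbic acid/TCA, then stopped with citrate/acetic acid.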
row,% Inhibition of Apyrase,Structure (SMILES)
1,62%,"COc1ccc(S(=O)(=O)N2CCc3ccccc32)cc1C(=O)Nc1ccc(OC(F)F)c(Cl)c1 [I-440, N-(3-chloro-4-(difluoromethoxy)phenyl)-5-(indolin-1-ylsulfonyl)-2-methoxybenzamide]"
2,62%,"O=C(c1cccc(S(=O)(=O)Nc2cccc(C(F)(F)F)c2)c1)N1CCCc2ccccc21 [I-441, 3-(1,2,3,4-tetrahydroquinoline-1-carbonyl)-N-(3-(trifluoromethyl)phenyl)benzenesulfonamide]"
3,61%,"COc1ccc(S(=O)(=O)N2CCc3ccccc32)cc1C(=O)Nc1cccc(C#N)c1 [I-442, N-(3-cyanophenyl)-5-(indolin-1-ylsulfonyl)-2-methoxybenzamide]"
4,61%,"O=C(Nc1cccc(F)c1)c1cccc(S(=O)(=O)N2CCc3ccccc32)c1 [I-443, N-(3-fluorophenyl)-3-(indolin-1-ylsulfonyl)benzamide]"
5,61%,"O=C(Nc1cccc2cccnc12)c1cccc(S(=O)(=O)N2CCc3ccccc32)c1 [I-444, 3-(indolin-1-ylsulfonyl)-N-(quinolin-8-yl)benzamide]"
6,61%,"CCc1ccccc1NC(=O)c1cccc(S(=O)(=O)N2c3ccccc3CC2C)c1 (stereo not shown) [I-445, N-(2-ethylphenyl)-3-((2-methylindolin-1-yl)sulfonyl)benzamide]"
7,61%,"O=C(Nc1cccc(S(=O)(=O)N2CCCCC2)c1)c1cccc(S(=O)(=O)N2CCc3ccccc32)c1 [I-446, 3-(indolin-1-ylsulfonyl)-N-(3-(piperidin-1-ylsulfonyl)phenyl)benzamide]"
8,61%,"COc1ccc(S(=O)(=O)N2CCc3ccccc32)cc1C(=O)Nc1cc(C(F)(F)F)cc(C(F)(F)F)c1 [I-447, N-(3,5-bis(trifluoromethyl)phenyl)-5-(indolin-1-ylsulfonyl)-2-methoxybenzamide]"
9,61%,"COc1ccc(NC(=O)c2cccc(S(=O)(=O)N3c4ccccc4CC3C)c2)cc1OC (stereo not shown) [I-449, N-(3,4-dimethoxyphenyl)-3-((2-methylindolin-1-yl)sulfonyl)benzamide]"
10,61%,"O=C(Nc1ccc(F)c(Cl)c1)c1cccc(S(=O)(=O)Nc2ccc(F)cc2)c1 [I-450, N-(3-chloro-4-fluorophenyl)-3-(N-(4-fluorophenyl)sulfamoyl)benzamide]"
11,60%,"O=C(Nc1ccc2c(c1)OCO2)c1cccc(S(=O)(=O)N2CCc3ccccc32)c1 [I-451, N-(benzo[d][1,3]dioxol-5-yl)-3-(indolin-1-ylsulfonyl)benzamide]"
12,60%,"Cc1ccc(NC(=O)c2cccc(S(=O)(=O)N3CCc4ccccc43)c2)cc1C [I-452, N-(3,4-dimethylphenyl)-3-(indolin-1-ylsulfonyl)benzamide]"
13,60%,"Cc1ccc(NC(=O)c2ccc(Cl)c(S(=O)(=O)N3CCc4ccccc43)c2)cc1 [I-453, 4-chloro-3-(indolin-1-ylsulfonyl)-N-(p-tolyl)benzamide]"
14,60%,"COc1ccc(NC(=O)c2cccc(S(=O)(=O)N3CCc4ccccc43)c2)cc1 [I-454, 3-(indolin-1-ylsulfonyl)-N-(4-methoxyphenyl)benzamide]"
15,60%,"Cc1c(Cl)cccc1NC(=O)c1cccc(S(=O)(=O)N2CCc3ccccc32)c1 [I-455, N-(3-chloro-2-methylphenyl)-3-(indolin-1-ylsulfonyl)benzamide]"
16,60%,"NC(=O)c1cccc(NC(=O)c2cccc(S(=O)(=O)N3CCc4ccccc43)c2)c1 [I-456, N-(3-carbamoylphenyl)-3-(indolin-1-ylsulfonyl)benzamide]"
17,60%,"O=C(c1cccc(S(=O)(=O)N(Cc2ccccc2)c2cccc(C(F)(F)F)c2)c1)N1CCc2ccccc21 [I-457, N-benzyl-3-(indoline-1-carbonyl)-N-(3-(trifluoromethyl)phenyl)benzenesulfonamide]"
18,60%,"CC1Cc2ccccc2N1S(=O)(=O)c1cccc(C(=O)Nc2cccc(S(N)(=O)=O)c2)c1 (stereo not shown) [I-458, 3-((2-methylindolin-1-yl)sulfonyl)-N-(3-sulfamoylphenyl)benzamide]"
19,60%,"Cc1ccc(NS(=O)(=O)c2ccc(Cl)c(C(=O)N3CCc4ccccc43)c2)cc1C [I-459, 4-chloro-N-(3,4-dimethylphenyl)-3-(indoline-1-carbonyl)benzenesulfonamide]"
20,60%,"COc1ccc(NS(=O)(=O)c2cccc(C(=O)Nc3ccc(OC(F)F)cc3)c2)cc1 [I-460, N-(4-(difluoromethoxy)phenyl)-3-(N-(4-methoxyphenyl)sulfamoyl)benzamide]"
21,59%,"COc1ccccc1NS(=O)(=O)c1cccc(C(=O)Nc2c(C)nc(O)nc2O)c1 [I-461, N-(2,4-dihydroxy-6-methylpyrimidin-5-yl)-3-(N-(2-methoxyphenyl)sulfamoyl)benzamide]"

row,% Inhibition of Apyrase,Structure (SMILES)
1,59%,"N#Cc1cccc(NC(=O)c2ccc(Cl)c(S(=O)(=O)N3CCc4ccccc43)c2)c1 [I-462, 4-chloro-N-(3-cyanophenyl)-3-(indolin-1-ylsulfonyl)benzamide]"
2,59%,"O=C(Nc1ccccc1OC(F)F)c1ccc(Cl)c(S(=O)(=O)N2CCc3ccccc32)c1 [I-463, 4-chloro-N-(2-(difluoromethoxy)phenyl)-3-(indolin-1-ylsulfonyl)benzamide]"
3,59%,"CC1Cc2ccccc2N1C(=O)c1cccc(S(=O)(=O)N(C)c2cccc(Cl)c2)c1 (stereo not shown) [I-464, N-(3-chlorophenyl)-N-methyl-3-(2-methylindoline-1-carbonyl)benzenesulfonamide]"
4,59%,"CC1Cc2ccccc2N1S(=O)(=O)c1cccc(C(=O)N2CCCc3ccccc32)c1 (stereo not shown) [I-465, (3,4-dihydroquinolin-1(2H)-yl)(3-((2-methylindolin-1-yl)sulfonyl)phenyl)methanone]"
5,59%,"Cc1ccccc1NC(=O)c1cccc(S(=O)(=O)N2c3ccccc3CC2C)c1 (stereo not shown) [I-466, 3-((2-methylindolin-1-yl)sulfonyl)-N-(o-tolyl)benzamide]"
6,59%,"COc1ccccc1NC(=O)c1cccc(S(=O)(=O)N2CCc3ccccc32)c1 [I-467, 3-(indolin-1-ylsulfonyl)-N-(2-methoxyphenyl)benzamide]"
7,59%,"CSc1cccc(NC(=O)c2cccc(S(=O)(=O)N3c4ccccc4CC3C)c2)c1 (stereo not shown) [I-468, 3-((2-methylindolin-1-yl)sulfonyl)-N-(3-(methylthio)phenyl)benzamide]"
8,59%,"CC1Cc2ccccc2N1S(=O)(=O)c1cccc(C(=O)Nc2cc(F)ccc2F)c1 (stereo not shown) [I-469, N-(2,5-difluorophenyl)-3-((2-methylindolin-1-yl)sulfonyl)benzamide]"
9,59%,"O=C(Nc1ccc(Br)cc1F)c1cccc(S(=O)(=O)N2CCc3ccccc32)c1 [I-470, N-(4-bromo-2-fluorophenyl)-3-(indolin-1-ylsulfonyl)benzamide]"
10,59%,"COc1ccc(S(=O)(=O)N2CCc3ccccc32)cc1C(=O)Nc1ccc(Br)c(C)c1 [I-471, N-(4-bromo-3-methylphenyl)-5-(indolin-1-ylsulfonyl)-2-methoxybenzamide]"
11,59%,"O=C(Nc1ccc(F)c(F)c1)c1cccc(S(=O)(=O)N2CCc3ccccc32)c1 [I-472, N-(3,4-difluorophenyl)-3-(indolin-1-ylsulfonyl)benzamide]"
12,59%,"COc1ccc(C)cc1NC(=O)c1cccc(S(=O)(=O)N2CCc3ccccc32)c1 [I-473, 3-(indolin-1-ylsulfonyl)-N-(2-methoxy-5-methylphenyl)benzamide]"
13,59%,"O=C(c1cc(S(=O)(=O)Nc2cccc(C(F)(F)F)c2)ccc1Cl)N1CCCc2ccccc21 [I-474, 4-chloro-3-(1,2,3,4-tetrahydroquinoline-1-carbonyl)-N-(3-(trifluoromethyl)phenyl)benzenesulfonamide]"
14,59%,"O=C(c1cccc(S(=O)(=O)Nc2cccc(C(F)(F)F)c2)c1)N1CCc2ccccc21 [I-475, 3-(indoline-1-carbonyl)-N-(3-(trifluoromethyl)phenyl)benzenesulfonamide]"
15,58%,"CC1Cc2ccccc2N1S(=O)(=O)c1cccc(C(=O)Nc2ccccc2OC(F)(F)F)c1 (stereo not shown) [I-476, 3-((2-methylindolin-1-yl)sulfonyl)-N-(2-(trifluoromethoxy)phenyl)benzamide]"
16,58%,"CN(c1ccccc1)S(=O)(=O)c1cc(C(=O)N2CCc3cc([N+](=O)[O-])ccc32)ccc1Cl [I-477, 2-chloro-N-methyl-5-(5-nitroindoline-1-carbonyl)-N-phenylbenzenesulfonamide]"
17,58%,"O=C(Nc1ccc(S(=O)(=O)NC2CC2)cc1)c1cccc(S(=O)(=O)N2CCc3ccccc32)c1 [I-478, N-(4-(N-cyclopropylsulfamoyl)phenyl)-3-(indolin-1-ylsulfonyl)benzamide]"
18,58%,"COc1ccc(N(C)S(=O)(=O)c2cccc(C(=O)Nc3ccc4c(c3)OCO4)c2)cc1 [I-479, N-(benzo[d][1,3]dioxol-5-yl)-3-(N-(4-methoxyphenyl)-N-methylsulfamoyl)benzamide]"
19,58%,"CC(=O)Nc1ccc(NC(=O)c2cccc(S(=O)(=O)N3CCc4ccccc43)c2)cc1 [I-480, N-(4-acetamidophenyl)-3-(indolin-1-ylsulfonyl)benzamide]"
20,58%,"Cc1ccc(N(C)S(=O)(=O)c2cccc(C(=O)N3c4ccccc4CC3C)c2)cc1 (stereo not shown) [I-481, N-methyl-3-(2-methylindoline-1-carbonyl)-N-(p-tolyl)benzenesulfonamide]"
21,58%,"CN(c1ccccc1)S(=O)(=O)c1cccc(C(=O)N2CCCc3ccccc32)c1 [I-482, N-methyl-N-phenyl-3-(1,2,3,4-tetrahydroquinoline-1-carbonyl)benzenesulfonamide]"

row,Structure (SMILES),% Inhibition of Apyrase
1,"O=C(c1ccc(Cl)c(S(=O)(=O)N2CCc3ccccc32)c1)N1CCc2ccccc21 [I-448, (4-chloro-3-(indolin-1-ylsulfonyl)phenyl)(indolin-1-yl)methanone]",61%
